# Marks after values point to notes of the source that are not given here.
# Columns and labels:
# [1] = Formation of ternary complex encapsulating various substances: particle diameter by DLS or FCS; format: physicochemical; details: for Particle diameter of encapsulated substance: substance alone
# Method: Ternary complexes were formed using not only the GFP protein but also a small molecule medicine, a peptide, an adeno-associated virus, an inorganic particle, a nucleic acid, and the like, and the particle diameter change was measured. As the measurement method, dynamic light scattering (DLS) or fluorescence correlation spectroscopy (FCS) was used.
# Temperature: 25° C., measurement time: 10 seconds, number of integrations: 10 times
# The method for measuring dynamic light scattering is as follows. Dynamic Light Scattering (DLS Zetasizer Nano ZS (manufactured by Malvern Instruments) was used to carry out DLS measurement at a detection angle of […] and a temperature of 25° C. A He—Ne laser (633 nm) was used as the incident beam. Each complex solution was added to a small glass cuvette (capacity: 12 μL, ZEN2112, manufactured by Malvern Instruments). The data obtained from the decay rate in the photon correlation function was analyzed by the Cumulant method, and then the hydrodynamic diameter (the arithmetic mean diameter based on the number of complexes) of each complex was calculated by the above Einstein-Stokes equation. […]
# The pitavastatin solution and the tannic acid solution were mixed to adjust a pitavastatin/TA solution. Then, PEG-P[Lys(FPBA)10]20 was added to the pitavastatin/TA solution to adjust a pitavastatin/TA/PEG-P[Lys(FPBA)10]20 (a pitavastatin ternary complex) solution. […]
# [2] = Pharmacokinetics of rose bengal ternary complex (blood retention); format: in vivo, mouse; details: 3 hours after intravenous administration, plasma fluorescence
# Method: [Final Concentrations of rose bengal, TA, and PEG-P[Lys(FPBA)10]20] • Rose bengal: 0.1 mg/mL • Tannic acid: 1.0 mg/mL • PEG-P[Lys(FBPA)10]20: 16.5 mg/mL
# The rose bengal solution and the tannic acid solution were mixed to adjust a rose bengal/TA solution. Then, PEG-P[Lys(FPBA)10]20 was added to the rose bengal/TA solution to adjust a rose bengal solution, a rose bengal/TA complex solution, and a rose bengal/TA/PEG-P[Lys(FPBA)10]20 (a rose bengal ternary complex) solution.
# 200 μl of the prepared solution described above was intravenously administered to the tail vein of the model mouse. One to three hours after the sample administration, dissection was carried out to recover blood, which was subsequently subjected to centrifugation at 5,000 g×10 minutes at 20° C. to recover 100 μl of a plasma component, and 700 μl of Passive Lysis Buffer was added thereto. Then, the fluorescence intensities (Ex/Em: 520 nm/570 nm) of the plasma component and the administered sample were measured with Spark to evaluate the blood retention. In the figure, rose bengal/TA/PEG-P[Lys(FPBA)10]20 is denoted by a rose bengal/TA/polymer.
# [3] = Bonding force by alizarin red method, PEG-FPBA; format: binding; details: Ex 468 nm/Em 572 nm
# Method: The bonding force was evaluated by the alizarin red method, which has been established as a method for quantifying the bonding force between boronic acid and the diol structure. The principle of the alizarin red method is briefly shown below by taking the method carried out in present Examples as an example. […]
# Solution A, and Solution B or Solution C were mixed in various ratios and the fluorescence measurement was performed (Ex=468 nm, Em=572 nm) using a disposable cell. After substituting the obtained fluorescence intensity and the concentration of each FPBA into the following expression (1) and creating a calibration curve by the least squares method, the equilibrium constant K0 of the ARS-FPBA system was calculated from the slope of the calibration curve. Next, Solution B or Solution C was mixed with Solution D, E, F, or G containing each diol compound in various ratios in the combination of B+D, B+E, C+F, and C+G, and the fluorescence measurement was performed (Ex=468 nm, Em=572 nm) using a disposable cell. After substituting the obtained fluorescence intensity and the concentration of each diol compound into the following expression (2) and creating a calibration curve by the least squares method, the equilibrium constant K1 of each diol compound-BPA system was calculated from the slope of the calibration curve. […]
# [4] = Bonding force by alizarin red method, PEG-P[Lys(FPBA)10]20; format: binding; details: for relative equilibrium constant with PEG10k-P[Lys(FPBA)10]20: alizarin red method, Ex 468 nm/Em 572 nm
# Method: The bonding force was evaluated by the alizarin red method, which has been established as a method for quantifying the bonding force between boronic acid and the diol structure. The principle of the alizarin red method is briefly shown below by taking the method carried out in present Examples as an example.
# [Final Concentrations of GFP, TA, PEG-FPBA, and PEG-P[Lys(FPBA)10]20] • Solution A: ARS (9.0×10^−6 M) • Solution B: ARS (9.0×10^−6 M)+PEG-FPBA (FPBA concentration: 2.0×10^−3 M) • Solution C: ARS (9.0×10^−6 M)+PEG-P[Lys(FPBA)10]20 (FPBA concentration: 2.0×10^−3 M) • Solution D: ARS (9.0×10^−6 M)+PEG-FPBA (FPBA concentration: 2.0×10^−3 M)+tannic acid (diol concentration=5.0×10^−4 M) • Solution E: ARS (9.0×10^−6 M)+PEG-FPBA (2.0×10^−3 M)+gallic acid (diol concentration=5.0×10^−4 M) • Solution F: ARS (9.0×10^−6 M)+PEG-P[Lys(FPBA)10]20 (FPBA concentration: 2.0×10^−3 M)+tannic acid (diol concentration=5.0×10^−4 M) • Solution G: ARS (9.0×10^−6 M)+PEG-P[Lys(FPBA)10]20 (FPBA concentration: 2.0×10^−3 M)+gallic acid (diol concentration=5.0×10^−4 M)
# Solution A, and Solution B or Solution C were mixed in various ratios and the fluorescence measurement was performed (Ex=468 nm, Em=572 nm) using a disposable cell. After substituting the obtained fluorescence intensity and the concentration of each FPBA into the following expression (1) and creating a calibration curve by the least squares method, the equilibrium constant K0 of the ARS-FPBA system was calculated from the slope of the calibration curve. Next, Solution B or Solution C was mixed with Solution D, E, F, or G containing each diol compound in various ratios in the combination of B+D, B+E, C+F, and C+G, and the fluorescence measurement was performed (Ex=468 nm, Em=572 nm) using a disposable cell. After substituting the obtained fluorescence intensity and the concentration of each diol compound into the following expression (2) and creating a calibration curve by the least squares method, the equilibrium constant K1 of each diol compound-BPA system was calculated from the slope of the calibration curve. The equilibrium constant obtained from the calibration curve is shown in Table 2 as a relative equilibrium constant.
# [formula] • [L0]=Concentration of FPBA added • [S0]=Concentration of diol added • [I0]=Concentration of ARS
# ΔIf=Ifs−Ifa • ΔIfc=Reciprocal of intercept of graph created in ARS-FPBA system • Ifs=Fluorescence intensity of ARS-FPBA • Ifa=Fluorescence intensity of solution A • K0=Equilibrium constant of ARS-FPBA • Kf=Equilibrium constant of diol compound—equilibrium constant of FPBA
molecule,measurement,setting,value
O=C(O)c1c(Cl)c(Cl)c(Cl)c(Cl)c1-c1c2cc(I)c(=O)c(I)c-2oc2c(I)c(O)c(I)cc12 [Rose bengal],Particle diameter of encapsulated substance,[1],0.7 nm
same,concentration in blood,[2],about 0.22%
"O=C(OC[C@H]1O[C@@H](OC(=O)c2cc(O)c(O)c(OC(=O)c3cc(O)c(O)c(O)c3)c2)[C@H](OC(=O)c2cc(O)c(O)c(OC(=O)c3cc(O)c(O)c(O)c3)c2)[C@@H](OC(=O)c2cc(O)c(O)c(OC(=O)c3cc(O)c(O)c(O)c3)c2)[C@@H]1OC(=O)c1cc(O)c(O)c(OC(=O)c2cc(O)c(O)c(O)c2)c1)c1cc(O)c(O)c(OC(=O)c2cc(O)c(O)c(O)c2)c1 [Tannic acid (TA), Tannic acid]",relative equilibrium constant with PEG-FPBA,[3],"1,877"
same,bonding constant with PEG-P[Lys(FPBA)10]20 as compared with PEG-FPBA,[4],5 times
same,relative equilibrium constant with PEG10k-P[Lys(FPBA)10]20,[4],"8,827"
"C=Cc1c(C)c2cc3nc(c(CC(=O)O)c4[nH]c(cc5nc(cc1[nH]2)C(C)=C5CC)c(C)c4C(=O)O)[C@@H](CCC(=O)O)[C@@H]3C [Chlorine 6, Chlorin e6]",Particle diameter of encapsulated substance,[1],1.2 nm
O=C(O)c1cc(O)c(O)c(O)c1 [Gallic acid],relative equilibrium constant with PEG-FPBA,[3],"2,030"
same,bonding constant with PEG-P[Lys(FPBA)10]20 as compared with PEG-FPBA,[4],2.5 times
same,relative equilibrium constant with PEG10k-P[Lys(FPBA)10]20,[4],"5,112"
"β-D-galactosidase: β-D-galactosidase (βGal): Mw 540 kDa, enzyme",Particle diameter of encapsulated substance,[1],13.9 nm
same,Particle diameter of complex,"[1]; ternary complex substance/TA/PEG-P[Lys(FPBA)10]20, dynamic light scattering method",42.8* nm
same,Polydiversity (PDI),"[1]; ternary complex, dynamic light scattering method",0.18
Gelonin,Particle diameter of encapsulated substance,[1],4.1 nm
O=C([O-])C[C@H](O)C[C@H](O)/C=C/c1c(C2CC2)nc2ccccc2c1-c1ccc(F)cc1.O=C([O-])C[C@H](O)C[C@H](O)/C=C/c1c(C2CC2)nc2ccccc2c1-c1ccc(F)cc1.[Ca+2] [Pitavastatin calcium],Particle diameter of encapsulated substance,[1],Aggregated
same,Particle diameter of encapsulated substance,[1]; listed as pitavastatin,4586 nm
Bleomycin sulfate,Particle diameter of encapsulated substance,[1],0.6 nm
